Reference: publication PMC5218480 (PLoS ONE, 2017)

System: MV-4-11 cells
Test: Gene expression microarray analysis (Affymetrix PrimeView) and GSEA
Format: cell-based, human
Design: RFU PODN (11730768_x_at) / Fold change /veh PODN (11730768_x_at) / RFU LINC00158 (11744669_a_at) / Fold change /veh LINC00158 (11744669_a_at) / RFU DUSP10 (11751237_a_at) / Fold change /veh DUSP10 (11751237_a_at) / RFU ID3 (11757404_x_at) / Fold change /veh ID3 (11757404_x_at) / RFU PLEKHG5 (11737974_s_at) / Fold change /veh PLEKHG5 (11737974_s_at) / RFU LRRC4B (11730491_at) / Fold change /veh LRRC4B (11730491_at) / RFU GIMAP4 (11747438_a_at) / Fold change /veh GIMAP4 (11747438_a_at) / RFU KRT8 (11758183_x_at) / Fold change /veh KRT8 (11758183_x_at) / RFU CNN1 (11734310_a_at) / Fold change /veh CNN1 (11734310_a_at) / RFU VPS37D (11726825_at) / Fold change /veh VPS37D (11726825_at) / RFU C10orf10 (11716522_x_at) / Fold change /veh C10orf10 (11716522_x_at) / RFU KIR2DL2 /// KIR2DL4 /// KIR2DL5A /// KIR2DL5B /// KIR2DS1 /// KIR2DS2 /// KIR2DS3 /// KIR2DS4 /// KIR3DL3 /// KIR3DL3 /// KIR3DS1 (11738374_at) / Fold change /veh KIR2DL2 /// KIR2DL4 /// KIR2DL5A /// KIR2DL5B /// KIR2DS1 /// KIR2DS2 /// KIR2DS3 /// KIR2DS4 /// KIR3DL3 /// KIR3DL3 /// KIR3DS1 (11738374_at) / RFU C1QL1 (11718748_at) / Fold change /veh C1QL1 (11718748_at) / RFU TMPRSS4 (11747572_a_at) / Fold change /veh TMPRSS4 (11747572_a_at) / RFU HAMP (11756126_x_at) / Fold change /veh HAMP (11756126_x_at) / RFU RNFT2 (11725882_a_at) / Fold change /veh RNFT2 (11725882_a_at) / RFU NR4A2 (11747474_a_at) / Fold change /veh NR4A2 (11747474_a_at) / RFU ABCC12 (11746883_a_at) / Fold change /veh ABCC12 (11746883_a_at) / RFU TMEM136 (11760407_x_at) / Fold change /veh TMEM136 (11760407_x_at) / RFU CLDN22 /// WWC2 (11732394_at) / Fold change /veh CLDN22 /// WWC2 (11732394_at) / RFU HLA-DPB1 (11760878_x_at) / Fold change /veh HLA-DPB1 (11760878_x_at) / RFU SPINT1 (11716480_a_at) / Fold change /veh SPINT1 (11716480_a_at) / RFU GAP43 (11754022_s_at) / Fold change /veh GAP43 (11754022_s_at) / RFU A4GNT (11735810_at) / Fold change /veh A4GNT (11735810_at) / RFU PRB3 (11715151_x_at) / Fold change /veh PRB3 (11715151_x_at) / RFU TUBB4B (11761932_at) / Fold change /veh TUBB4B (11761932_at) / RFU CAPN14 (11732068_a_at) / Fold change /veh CAPN14 (11732068_a_at) / RFU TMCC2 (11721928_a_at) / Fold change /veh TMCC2 (11721928_a_at) / RFU IRGQ (11745062_a_at) / Fold change /veh IRGQ (11745062_a_at) / RFU FAM174B (11720279_a_at) / Fold change /veh FAM174B (11720279_a_at) / RFU TMPRSS4 (11748680_a_at) / Fold change /veh TMPRSS4 (11748680_a_at) / RFU FAM212B (11763350_a_at) / Fold change /veh FAM212B (11763350_a_at) / RFU PLEKHG5 (11743358_a_at) / Fold change /veh PLEKHG5 (11743358_a_at) / RFU ZSCAN30 (11745921_a_at) / Fold change /veh ZSCAN30 (11745921_a_at) / RFU CMKLR1 (11741424_a_at) / Fold change /veh CMKLR1 (11741424_a_at) / RFU LOC101060620 /// MAPK8IP1 (11723275_at) / Fold change /veh LOC101060620 /// MAPK8IP1 (11723275_at) / RFU SPTSSB (11747773_x_at) / Fold change /veh SPTSSB (11747773_x_at) / RFU PRSS12 (11739890_at) / Fold change /veh PRSS12 (11739890_at) / RFU BIN1 (11741810_x_at) / Fold change /veh BIN1 (11741810_x_at) / RFU WNT11 (11732464_a_at) / Fold change /veh WNT11 (11732464_a_at) / RFU C10orf10 (11716521_a_at) / Fold change /veh C10orf10 (11716521_a_at) / RFU C5orf56 (11738089_at) / Fold change /veh C5orf56 (11738089_at) / RFU CYB561 (11721691_x_at) / Fold change /veh CYB561 (11721691_x_at) / RFU ANKRD19P (11752326_a_at) / Fold change /veh ANKRD19P (11752326_a_at) / RFU OR2T12 /// OR2T33 /// OR2T8 (11738714_s_at) / Fold change /veh OR2T12 /// OR2T33 /// OR2T8 (11738714_s_at) / RFU VCAN (11748164_a_at) / Fold change /veh VCAN (11748164_a_at) / RFU JSRP1 (11732532_at) / Fold change /veh JSRP1 (11732532_at) / RFU KRTAP10-11 (11738290_x_at) / Fold change /veh KRTAP10-11 (11738290_x_at) / RFU MYO3A (11730013_a_at) / Fold change /veh MYO3A (11730013_a_at) / RFU EBF3 (11725865_a_at) / Fold change /veh EBF3 (11725865_a_at) / RFU CAMK2N1 (11719241_x_at) / Fold change /veh CAMK2N1 (11719241_x_at) / RFU C5orf56 (11738088_a_at) / Fold change /veh C5orf56 (11738088_a_at) / RFU OLFML3 (11715873_a_at) / Fold change /veh OLFML3 (11715873_a_at) / RFU LOC100653217 /// NTM (11731650_a_at) / Fold change /veh LOC100653217 /// NTM (11731650_a_at) / RFU MAPK11 (11762145_a_at) / Fold change /veh MAPK11 (11762145_a_at) / RFU FIZ1 (11724087_x_at) / Fold change /veh FIZ1 (11724087_x_at) / RFU OASL (11726364_x_at) / Fold change /veh OASL (11726364_x_at) / RFU SOX15 (11748057_x_at) / Fold change /veh SOX15 (11748057_x_at) / RFU CD79A (11719716_a_at) / Fold change /veh CD79A (11719716_a_at) / RFU HIST1H1D (11736915_at) / Fold change /veh HIST1H1D (11736915_at) / RFU CASKIN2 (11723855_a_at) / Fold change /veh CASKIN2 (11723855_a_at) / RFU LOC730098 (11760151_x_at) / Fold change /veh LOC730098 (11760151_x_at) / RFU OR4N2 (11742367_at) / Fold change /veh OR4N2 (11742367_at) / RFU PRRT2 (11749266_a_at) / Fold change /veh PRRT2 (11749266_a_at) / RFU SNX32 (11753110_a_at) / Fold change /veh SNX32 (11753110_a_at) / RFU CDHR5 (11726645_a_at) / Fold change /veh CDHR5 (11726645_a_at) / RFU RCAN1 (11760418_a_at) / Fold change /veh RCAN1 (11760418_a_at) / RFU FAM167A (11723789_a_at) / Fold change /veh FAM167A (11723789_a_at) / RFU FAM26E (11764081_at) / Fold change /veh FAM26E (11764081_at) / RFU ISYNA1 (11749810_s_at) / Fold change /veh ISYNA1 (11749810_s_at) / RFU ACY1 (11761880_at) / Fold change /veh ACY1 (11761880_at) / RFU 11764098_at / Fold change /veh 11764098_at / RFU SAMD14 (11745864_x_at) / Fold change /veh SAMD14 (11745864_x_at) / RFU NPB (11741838_a_at) / Fold change /veh NPB (11741838_a_at) / RFU TMPRSS6 (11731388_a_at) / Fold change /veh TMPRSS6 (11731388_a_at) / RFU KRTAP10-2 (11738614_at) / Fold change /veh KRTAP10-2 (11738614_at) / RFU ARHGAP8 /// PRR5-ARHGAP8 (11727945_x_at) / Fold change /veh ARHGAP8 /// PRR5-ARHGAP8 (11727945_x_at) / RFU KRTAP5-7 /// NADSYN1 (11734609_at) / Fold change /veh KRTAP5-7 /// NADSYN1 (11734609_at) / RFU RASL12 (11751679_a_at) / Fold change /veh RASL12 (11751679_a_at) / RFU CDKN2B (11736163_a_at) / Fold change /veh CDKN2B (11736163_a_at) / RFU PRF1 (11729649_at) / Fold change /veh PRF1 (11729649_at) / RFU, ZNF638 /// ZNF638-IT1 / Fold change vs veh, ZNF638 /// ZNF638-IT1 / RFU, PANK3 / Fold change vs veh, PANK3 / RFU, SH3YL1 / Fold change vs veh, SH3YL1 / RFU, ZEB2 / Fold change vs veh, ZEB2 / RFU, NRIP1 / Fold change vs veh, NRIP1 / RFU, PTTG1IP / Fold change vs veh, PTTG1IP / RFU, CAPN2 / Fold change vs veh, CAPN2 / RFU, MED14 / Fold change vs veh, MED14 / RFU, SNORA58 / Fold change vs veh, SNORA58 / RFU, C1orf63 / Fold change vs veh, C1orf63 / RFU, LRRFIP1 / Fold change vs veh, LRRFIP1 / RFU, NDUFAF7 / Fold change vs veh, NDUFAF7 / RFU, SLC12A2 / Fold change vs veh, SLC12A2 / RFU, IBTK / Fold change vs veh, IBTK / RFU, ESF1 / Fold change vs veh, ESF1 / Fold change vs veh, TMEM50B / RFU, TAOK1 / Fold change vs veh, TAOK1 / RFU, ACBD3 / Fold change vs veh, ACBD3 / RFU, TMA16 / Fold change vs veh, TMA16 / RFU, RWDD3 / Fold change vs veh, RWDD3 / RFU, BCAT1 / Fold change vs veh, BCAT1 / RFU, EDEM3 / Fold change vs veh, EDEM3 / RFU, TMEM33 / Fold change vs veh, TMEM33 / RFU, WDR75 / Fold change vs veh, WDR75 / RFU, AHCTF1 / Fold change vs veh, AHCTF1 / RFU, TFRC / Fold change vs veh, TFRC / RFU, ZDHHC17 / Fold change vs veh, ZDHHC17 / RFU, NOM1 / Fold change vs veh, NOM1 / RFU, ARL8B / Fold change vs veh, ARL8B / RFU, ZBTB11 / Fold change vs veh, ZBTB11 / RFU, TAMM41 / Fold change vs veh, TAMM41 / RFU, KIAA1704 /// LOC100996395 / Fold change vs veh, KIAA1704 /// LOC100996395 / RFU, ING1 / Fold change vs veh, ING1 / RFU, TRMT61B / Fold change vs veh, TRMT61B / RFU, FUBP3 / Fold change vs veh, FUBP3 / RFU, TP53 / Fold change vs veh, TP53 / RFU, TNKS2 / Fold change vs veh, TNKS2 / RFU, ZFP14 / Fold change vs veh, ZFP14 / RFU, ACTR2 / Fold change vs veh, ACTR2 / RFU, PPP3R1 / Fold change vs veh, PPP3R1 / RFU, PIK3R1 / Fold change vs veh, PIK3R1 / RFU, HNRNPA1 / Fold change vs veh, HNRNPA1 / RFU, RNF170 / Fold change vs veh, RNF170 / RFU, ZNF28 / Fold change vs veh, ZNF28 / RFU, RNGTT / Fold change vs veh, RNGTT / RFU, OGT / Fold change vs veh, OGT / RFU, BRD1 / Fold change vs veh, BRD1 / RFU, MARS / Fold change vs veh, MARS / RFU, ZNF655 / Fold change vs veh, ZNF655 / RFU, FAHD1 / Fold change vs veh, FAHD1 / RFU, BDP1 / Fold change vs veh, BDP1 / RFU, LRRCC1 / Fold change vs veh, LRRCC1 / RFU, ARID1A / Fold change vs veh, ARID1A / RFU, ZNF146 / Fold change vs veh, ZNF146 / RFU, ZNF330 / Fold change vs veh, ZNF330 / RFU, GPN3 / Fold change vs veh, GPN3 / RFU, C9orf123 / Fold change vs veh, C9orf123 / RFU, N4BP2L2 / Fold change vs veh, N4BP2L2 / RFU, ARFIP1 / Fold change vs veh, ARFIP1 / RFU, FAM179B / Fold change vs veh, FAM179B / RFU, BCL10 / Fold change vs veh, BCL10 / RFU, UHRF1BP1L / Fold change vs veh, UHRF1BP1L / RFU, BET1 / Fold change vs veh, BET1 / RFU, CNOT2 / Fold change vs veh, CNOT2 / RFU, ZNF268 / Fold change vs veh, ZNF268 / Fold change vs veh, ZNF507 / RFU, DGCR2 / Fold change vs veh, DGCR2 / RFU, WDSUB1 / Fold change vs veh, WDSUB1 / Fold change vs veh, HSP90B1 /// MIR3652 / RFU, ADSS / Fold change vs veh, ADSS / RFU, GK / Fold change vs veh, GK / RFU, ZNF148 / Fold change vs veh, ZNF148 / RFU, TAF9 / Fold change vs veh, TAF9 / RFU, SLC1A5 / Fold change vs veh, SLC1A5 / RFU, SLMO2 / Fold change vs veh, SLMO2 / RFU, ABCC4 / Fold change vs veh, ABCC4 / RFU, LOC101060439 /// RAP1B / Fold change vs veh, LOC101060439 /// RAP1B / RFU, RFX7 / Fold change vs veh, RFX7 / RFU, GTPBP10 / Fold change vs veh, GTPBP10 / RFU, CNEP1R1 / Fold change vs veh, CNEP1R1 / RFU, BIVM-ERCC5 /// ERCC5 / Fold change vs veh, BIVM-ERCC5 /// ERCC5 / RFU, ILF3 / Fold change vs veh, ILF3 / RFU 11762660_at / Fold change /veh 11762660_at / RFU VCAN (11757783_s_at) / Fold change /veh VCAN (11757783_s_at) / RFU DDX43 (11728927_at) / Fold change /veh DDX43 (11728927_at) / RFU KRT8 (11758188_x_at) / Fold change /veh KRT8 (11758188_x_at) / RFU NKD1 (11759106_at) / Fold change /veh NKD1 (11759106_at) / RFU SRD5A1 (11742802_a_at) / Fold change /veh SRD5A1 (11742802_a_at) / RFU TPSAB1 /// TPSB2 (11721975_s_at) / Fold change /veh TPSAB1 /// TPSB2 (11721975_s_at) / RFU GSTM3 (11746129_a_at) / Fold change /veh GSTM3 (11746129_a_at) / RFU IL23R (11737362_x_at) / Fold change /veh IL23R (11737362_x_at) / RFU TMEM51 (11727254_a_at) / Fold change /veh TMEM51 (11727254_a_at) / RFU PIWIL2 (11732686_x_at) / Fold change /veh PIWIL2 (11732686_x_at) / RFU ORM1 (11744905_x_at) / Fold change /veh ORM1 (11744905_x_at) / RFU CCDC152 (11743942_at) / Fold change /veh CCDC152 (11743942_at) / RFU ECM1 (11717891_a_at) / Fold change /veh ECM1 (11717891_a_at) / RFU IL23R (11748794_a_at) / Fold change /veh IL23R (11748794_a_at) / RFU TNFAIP8L3 (11732012_x_at) / Fold change /veh TNFAIP8L3 (11732012_x_at) / RFU MBOAT4 (11741988_at) / Fold change /veh MBOAT4 (11741988_at) / RFU 11764193_at / Fold change /veh 11764193_at / RFU TMEM53 (11763286_at) / Fold change /veh TMEM53 (11763286_at) / RFU MAGEB2 (11727129_at) / Fold change /veh MAGEB2 (11727129_at) / RFU TMEM200A (11744735_a_at) / Fold change /veh TMEM200A (11744735_a_at) / RFU CCDC152 (11751479_a_at) / Fold change /veh CCDC152 (11751479_a_at) / RFU FAM211A (11726209_a_at) / Fold change /veh FAM211A (11726209_a_at) / RFU RGS16 (11746705_a_at) / Fold change /veh RGS16 (11746705_a_at) / RFU VCAN (11755009_s_at) / Fold change /veh VCAN (11755009_s_at) / RFU RHOB (11743442_s_at) / Fold change /veh RHOB (11743442_s_at) / RFU RGS16 (11720943_a_at) / Fold change /veh RGS16 (11720943_a_at) / RFU RGS16 (11720944_at) / Fold change /veh RGS16 (11720944_at) / RFU, VPS4B / Fold change vs veh, VPS4B / RFU, CREB1 / Fold change vs veh, CREB1 / RFU, DNAJC13 / Fold change vs veh, DNAJC13 / RFU, GNAQ / Fold change vs veh, GNAQ / RFU, CDK5R1 / Fold change vs veh, CDK5R1 / RFU, ZRANB3 / Fold change vs veh, ZRANB3 / RFU, CUL4A / Fold change vs veh, CUL4A / RFU, CCNY / Fold change vs veh, CCNY / RFU, UFL1 / Fold change vs veh, UFL1 / RFU, COG3 / Fold change vs veh, COG3 / RFU, DIAPH2 / Fold change vs veh, DIAPH2 / RFU, SKA2 / Fold change vs veh, SKA2 / RFU, AFF3 / Fold change vs veh, AFF3 / RFU, LMF1 / Fold change vs veh, LMF1 / RFU, IPO11 / Fold change vs veh, IPO11 / RFU, DFFB / Fold change vs veh, DFFB / RFU, FOXP1 / Fold change vs veh, FOXP1 / RFU, CARD8 / Fold change vs veh, CARD8 / RFU, STRN3 / Fold change vs veh, STRN3 / RFU, ADK / Fold change vs veh, ADK / RFU, RASSF2 / Fold change vs veh, RASSF2 / RFU, WIPF1 / Fold change vs veh, WIPF1 / RFU, LARP1B / Fold change vs veh, LARP1B / RFU, RASA1 / Fold change vs veh, RASA1 / RFU, RB1 / Fold change vs veh, RB1 / RFU, PPFIA1 / Fold change vs veh, PPFIA1 / RFU, MAT2A / Fold change vs veh, MAT2A / RFU, CCT5 / Fold change vs veh, CCT5 / RFU, WDR92 / Fold change vs veh, WDR92 / RFU, CUX1 / Fold change vs veh, CUX1 / RFU, TTC7A / Fold change vs veh, TTC7A / RFU, TMEM135 / Fold change vs veh, TMEM135 / RFU, DEPTOR / Fold change vs veh, DEPTOR / RFU, CPM / Fold change vs veh, CPM / RFU, DNAJB6 / Fold change vs veh, DNAJB6 / RFU, CACNA2D3 / Fold change vs veh, CACNA2D3 / RFU, DTX4 / Fold change vs veh, DTX4 / RFU, TFCP2 / Fold change vs veh, TFCP2 / RFU, GMCL1 /// GMCL1P1 / Fold change vs veh, GMCL1 /// GMCL1P1 / RFU, AEBP2 / Fold change vs veh, AEBP2 / RFU, SNHG1 /// SNORD22 /// SNORD25 /// SNORD26 /// SNORD27 /// SNORD28 /// SNORD29 /// SNORD31 / Fold change vs veh, SNHG1 /// SNORD22 /// SNORD25 /// SNORD26 /// SNORD27 /// SNORD28 /// SNORD29 /// SNORD31 / Fold change (Aza/veh), C12orf56 (ProbeSet 11735607_a_at) / Fold change (ACY-1035/veh), C12orf56 (ProbeSet 11735607_a_at) / Fold change (Aza/veh), FGFR1OP (ProbeSet 11751329_s_at) / Fold change (ACY-1035/veh), FGFR1OP (ProbeSet 11751329_s_at) / Fold change (Aza/veh), VPS36 (ProbeSet 11739960_a_at) / Fold change (ACY-1035/veh), VPS36 (ProbeSet 11739960_a_at) / RFU SYPL1 (11715823_x_at) / Fold change /veh SYPL1 (11715823_x_at) / RFU IGFBP7 (11715501_s_at) / Fold change /veh IGFBP7 (11715501_s_at) / RFU REEP3 (11722064_at) / Fold change /veh REEP3 (11722064_at) / RFU IGLL1 (11728026_x_at) / Fold change /veh IGLL1 (11728026_x_at): dose or concentration left out as unconfirmed
Conditions: ProbeSet 11740011_at; LIST B

Nc1ncn([C@@H]2O[C@H](CO)[C@@H](O)[C@H]2O)c(=O)n1 [azacitidine] was tested, and the “RFU, ZFP14” value was 67.74 RFU.
